Assay [1] has as its system Hedgehog pathway activation on 10T1/2/Smo#3 cells (C3H10T1/2 cells transfected with human Smoothened receptor). The assay can be described thus: Hedgehog pathway activation on 10T1/2/Smo#3 cells measured by ALP activity. It is filed as cell-based. The conditions noted are these: Mus musculus, C3H 10T1/2, 10T1/2/Smo#3 cells. Summed up: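 Inhibition of alkaline phosphatase induction, read fluorometrically from 4-methylumbelliferyl phosphate conversion, gave IC50 values; CellTiter-Blue tracked viability in parallel. Cells were the human Smo-transfected 10T1/2/Smo#3 pool, stimulated by 10-20% hShh conditioned medium or the Smo agonist SAG (500 nM).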

Assay [2] concerns Hedgehog pathway activation (GLi-luciferase reporter) in Shh Light II reporter cells. The assay can be described thus: Hedgehog pathway activation on Shh Light II reporter cells measured by luciferase activity. It is filed as cell-based. Summed up:
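Shh Light II reporter cells carrying a hedgehog-responsive GLi-luciferase reporter were stimulated either with 500 nM SAG, a direct Smoothened agonist, or with conditioned media containing human Sonic Hedgehog (hShh). Test compounds were evaluated for blocking this pathway activation, quantified by luciferase activity. Cell viability was monitored in parallel with the Celltiter-Blue® assay.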

The mark [3] stands for this setting: measured by ALP activity, read-out: ALP (IC50, inhibition of Hedgehog pathway activation).
[4] abbreviates: Mus musculus, Shh Light II, hShh activation, read-out: Shh (IC50, inhibition of Hedgehog pathway activation).
The mark [5] stands for this setting: hShh activation, ALP activity, read-out: 10T1/2/Smo#3 ALP activity (hShh Activation).
The mark [6] stands for this setting: Mus musculus, Shh Light II, SAG activation (500 nM SAG), read-out: Shh Light II luciferase activity (SAG activation).
The mark [7] stands for this setting: Mus musculus, Shh Light II, hShh activation, read-out: Shh Light II luciferase activity (hShh activation).

IC50 data for twelve molecules are collected here from patent publication US8871767B2, “2-arylimidazo[1,2-B]pyridazine, 2-phenylimidazo[1,2-A]pyridine, and 2-phenylimidazo[1,2-A]pyrazine derivatives” (Hengrui (USA) Ltd., priority 2010, dated 2014).

Where two headings read alike, the source gives them in different places.

As for `CC(CC(=O)Nc1cc(-c2cn3nc(-c4cccnc4C(F)(F)F)ccc3n2)ccc1Cl)C(F)(F)F` (stereo not drawn) [Example 666, N-(2-chloro-5-(6-(2-(trifluoromethyl)pyridin-3-yl)imidazo[1,2-b]pyridazin-2-yl)phenyl)-4,4,4-trifluoro-3-methylbutanamide], the IC50 amounted to 527 nM in assay [1] (setting [3]) and 64 nM in assay [2] (setting [4]).

As for `Cc1ccc(-c2cn3nc(C4CC4)ccc3n2)cc1NC(=O)C(C)(C)C` [Example 127, N-(5-(6-cyclopropylimidazo[1,2-b]pyridazin-2-yl)-2-methylphenyl)pivalamide], the IC50 in assay [1] (setting [5]) was less than 300 nM; in assay [1] (setting [3]), 110 nM; in assay [2] (setting [6]) it was 300 to 3000 nM; in assay [2] (setting [4]), 4970 nM; in assay [2] (setting [7]) it was 300 to 3000 nM.

In the case of `CCOC(=O)CCCCCCOc1ccc(-c2ccc3nc(-c4ccc(C)c(NC(=O)C(C)(C)C)c4)cn3n2)c(C(F)(F)F)c1` [Example 413, ethyl 7-(4-(2-(4-methyl-3-pivalamidophenyl)imidazo[1,2-b]pyridazin-6-yl)-3-(trifluoromethyl)phenoxy)heptanoate], the IC50 is 548 nM in assay [1] (setting [3]) and 318 nM in assay [2] (setting [4]).

Turning to `CC(C)(C)C(=O)Nc1cc(-c2cn3nc(N4CCC[C@@H](O)C4)ccc3n2)ccc1C(F)(F)F` [Example 357, (R)-N-(5-(6-(3-hydroxypiperidin-1-yl)imidazo[1,2-b]pyridazin-2-yl)-2-(trifluoromethyl)phenyl)pivalamide], the IC50 in assay [1] (setting [3]) was 445 nM; in assay [2] (setting [4]) it was 151 nM.

For the molecule `CNS(=O)(=O)c1cc(-c2cn3nc(-c4cccnc4C(F)(F)F)ccc3n2)ccc1Cl` [Example 698, 2-chloro-N-methyl-5-(6-(2-(trifluoromethyl)pyridin-3-yl)imidazo[1,2-b]pyridazin-2-yl)benzenesulfonamide], the IC50 is more than 10000 nM in assay [1] (setting [3]) and 4250 nM in assay [2] (setting [4]).

Consider `CCOc1nn2cc(-c3ccc(C(F)(F)F)c(NC(=O)C(C)(C)C)c3)nc2c(C)c1C` [Example 201, N-(5-(6-ethoxy-7,8-dimethylimidazo[1,2-b]pyridazin-2-yl)-2-(trifluoromethyl)phenyl)pivalamide], for which the IC50 in assay [1] (setting [3]) came to 869 nM; in assay [2] (setting [4]), 402 nM.

Turning to `Cc1ccc(-c2cn3nc(-c4ccc(C(C)(C)O)cc4C(F)(F)F)ccc3n2)cc1NC(=O)C(C)(C)C` [compound 533], the IC50 in assay [1] (setting [3]) was 449 nM; in assay [2] (setting [4]) it was 301 nM.

On to `COc1ncc(-c2ccc3nc(-c4ccc(C(F)(F)F)c(NC(=O)C(C)(C)C)c4)cn3n2)cn1` [Example 373, N-(5-(6-(2-methoxypyrimidin-5-yl)imidazo[1,2-b]pyridazin-2-yl)-2-(trifluoromethyl)phenyl)pivalamide], for which the IC50 is 533 nM in assay [1] (setting [3]) and 929 nM in assay [2] (setting [4]).

For `CC(C)(C)C(=O)Nc1cc(-c2cn3nc(N4CCN(C(=N)N)CC4)ccc3n2)ccc1C(F)(F)F` [compound 570], the IC50 in assay [1] (setting [3]) was determined as 730 nM; in assay [2] (setting [4]) it was 240 nM.

On to `CNc1ccc2nc(-c3ccc(C(F)(F)F)c(NC(=O)C(C)(C)C)c3)cn2n1` [Example 137, N-(5-(6-(methylamino)imidazo[1,2-b]pyridazin-2-yl)-2-(trifluoromethyl)phenyl)pivalamide], for which the IC50 was 300 to 3000 nM in assay [1] (setting [5]); 995 nM in assay [1] (setting [3]); 300 to 3000 nM in assay [2] (setting [6]); 623 nM in assay [2] (setting [4]); 300 to 3000 nM in assay [2] (setting [7]).

Turning to `Cc1ccc(-c2ccc3nc(-c4ccc(C(F)(F)F)c(NC(=O)C(C)(C)C)c4)cn3n2)c(F)c1` [Example 205, N-(5-(6-(2-fluoro-4-methylphenyl)imidazo[1,2-b]pyridazin-2-yl)-2-(trifluoromethyl)phenyl)pivalamide], the results for the IC50 in assay [1] (setting [3]) and in assay [2] (setting [4]) were 196 nM and 279 nM, respectively.

On to `CC(C)(C)C(=O)Nc1cc(-c2cn3nc(N4CCCC(O)C4)ccc3n2)ccc1C(F)(F)F` (stereo not drawn) [Example 471, N-(5-(6-(3-hydroxypiperidin-1-yl)imidazo[1,2-b]pyridazin-2-yl)-2-(trifluoromethyl)phenyl)pivalamide], for which the IC50 in assay [1] (setting [3]) turned out to be 445 nM; in assay [2] (hShh activation, read-out: Shh (IC50, inhibition of Hedgehog pathway activation)) it was 151 nM.
